Test system: Plasmodium berghei
Experiment: Luciferase/luciferin-expressing antifolate-resistant parasites were used to infect a culture of HepG2 cells that were pre-incubated with compounds. Infected hepatocytes emit light due to the luciferase reaction. Assay results are presented as the percent inhibition of light emission compared to control. […]
Assay type: functional
Conditions: sporozoite; for IC90: read-out: LUCIFERASE INFECTION ASSAY - IC90
[1] = read-out: LUCIFERASE INFECTION ASSAY - IC50

| SMILES | IC50 [1] [µM] | IC90 [µM] | further results |
| --- | --- | --- | --- |
| Cc1ccc(C)c(S(=O)(=O)CCN2C(=O)C(=O)N(Cc3cccs3)C2=O)c1 | > 10 | > 10 |  |
| CCCCNC(=S)NN=C(c1ccccc1)c1ccccc1 | > 10 | > 10 |  |
| COCCCNc1nccc2nc(-c3cccc(OC(F)(F)F)c3)[nH]c12 |  | > 10 | IC50 (HEPG2TOX_HILL_SLOPE 4.74, HEPG2TOX_R_SQUARED 0.77, PBLUC_HILL_SLOPE 3.71, PBLUC_R_SQUARED 0.224, read-out: LUCIFERASE INFECTION ASSAY - IC50): 5.72 µM |
| Clc1cccc(-c2cn3c(-c4ccncc4)cnc3cn2)c1 |  | > 10.8 | IC50 (FFLUC_HILL_SLOPE 4.91, FFLUC_R_SQUARED 0.112, HEPG2TOX_HILL_SLOPE 0.251, HEPG2TOX_R_SQUARED 0.199, PBLUC_HILL_SLOPE 3.54, PBLUC_R_SQUARED 0.544, read-out: LUCIFERASE INFECTION ASSAY - IC50): 6.34 µM |
| COc1ccc(C(=O)C2CCN(c3nn4cc(C(C)(C)C)nc4s3)CC2)cc1 | 3.34 | 4.16 |  |
| Cc1ccc2nc(COc3ccc(C(=O)NC4(C)CCS(=O)(=O)C4)cc3)cn2c1 (stereo not given) | > 10 | > 10 |  |
| O=C(COc1ccc(F)cc1C(=O)c1cnn(-c2ccccc2)c1)Nc1ccc(Br)cc1F |  | > 10 | IC50 (HEPG2TOX_HILL_SLOPE 0.0675, HEPG2TOX_R_SQUARED 0.0289, PBLUC_HILL_SLOPE 1.95, PBLUC_R_SQUARED 0.148, read-out: LUCIFERASE INFECTION ASSAY - IC50): > 10 µM |
| O=C(CCCNC(=O)c1ccsc1)Nc1ccc(OC(F)(F)F)cc1 | > 10 | > 10 |  |
| O=c1c(Cl)cc(C(F)(F)F)cn1Cc1csc(Nc2ccccc2)n1 |  | > 10 | IC50 (HEPG2TOX_HILL_SLOPE 6.73, HEPG2TOX_R_SQUARED 0.639, PBLUC_HILL_SLOPE 3.67, PBLUC_R_SQUARED 0.234, read-out: LUCIFERASE INFECTION ASSAY - IC50): 8.88 µM |
| O=C(NC1CC1)c1ccc(CN(C(=O)Nc2cccc3ccccc23)C2CC2)cc1 |  | 4.41 | IC50 (PBLUC_HILL_SLOPE 14, PBLUC_R_SQUARED 0.411, read-out: LUCIFERASE INFECTION ASSAY - IC50): 3.77 µM |
| CCOC(=O)Nc1ccc2c(Cn3cnc4sc5c(c4c3=O)CCC5)cc(=O)oc2c1 |  | > 10 | IC50 (FFLUC_HILL_SLOPE 14, FFLUC_R_SQUARED 0.282, read-out: LUCIFERASE INFECTION ASSAY - IC50): > 10 µM |
| Cn1nc(-c2ccc(-c3ccnc(SCC(=O)c4ccccc4)n3)s2)cc1C(F)(F)F |  | > 7.17 | IC50 (FFLUC_HILL_SLOPE 0.544, FFLUC_R_SQUARED 0.175, read-out: LUCIFERASE INFECTION ASSAY - IC50): > 7.17 µM |
| O=C(NCc1ccc(N2CCCC2=O)cc1)c1cccnc1OCC(F)(F)F |  | 4.11 | IC50 (HEPG2TOX_HILL_SLOPE 1.59, HEPG2TOX_R_SQUARED 0.969, PBLUC_HILL_SLOPE 1.45, PBLUC_R_SQUARED 0.646, read-out: LUCIFERASE INFECTION ASSAY - IC50): 0.899 µM |
| O=C(Nc1ccccc1C(=O)OCCC(F)(F)F)c1ccccc1 | > 10 | > 10 |  |
| O=C(Nc1ccc[n+](Cc2ccccc2)c1)c1ccccc1-c1ccc(C(F)(F)F)cc1 |  | > 10 | IC50 (PBLUC_HILL_SLOPE 3.37, PBLUC_R_SQUARED 0.68, read-out: LUCIFERASE INFECTION ASSAY - IC50): 5.76 µM |
| Clc1ccccc1Oc1ccc(Nc2ccc3nnnn3n2)cc1 | > 10 | > 10 |  |
| CCN(CC)S(=O)(=O)c1ccc(C)c(NC(=O)CN(Cc2c(F)cccc2Cl)C2CC2)c1 | > 10 | > 10 |  |
| Cc1cc(C)c(NC(=O)c2cc(-c3ccccc3)nn2-c2ccccc2)c(C)c1 | > 10 | > 10 |  |
| O=C(c1ccc([N+](=O)[O-])o1)N1CCc2sccc2C1c1ccccc1 (stereo not given) |  | > 10 | IC50 (HEPG2TOX_HILL_SLOPE 0.0396, HEPG2TOX_R_SQUARED 0.037, PBLUC_HILL_SLOPE 3.01, PBLUC_R_SQUARED 0.32, read-out: LUCIFERASE INFECTION ASSAY - IC50): 6.65 µM |
| CS(=O)(=O)Nc1nc(-c2ccccn2)nc2scc(-c3ccccc3)c12 |  | 3.29 | IC50 (HEPG2TOX_HILL_SLOPE 1.24, HEPG2TOX_R_SQUARED 0.884, PBLUC_HILL_SLOPE 3.45, PBLUC_R_SQUARED 0.254, read-out: LUCIFERASE INFECTION ASSAY - IC50): 1.74 µM |
| CN(C1CCCCCC1)S(=O)(=O)c1ccc(-n2ncc(Cl)c(Cl)c2=O)cc1 | 3.55 | 5.25 |  |
| COc1cc2c(cc1OC)C(c1cccs1)N(CC(=O)Nc1cc([N+](=O)[O-])ccc1C)CC2 (stereo not given) |  | 2.62 | IC50 (FFLUC_HILL_SLOPE 11.9, FFLUC_R_SQUARED 0.176, HEPG2TOX_HILL_SLOPE 0.633, HEPG2TOX_R_SQUARED 0.848, PBLUC_HILL_SLOPE 2.15, PBLUC_R_SQUARED 0.479, read-out: LUCIFERASE INFECTION ASSAY - IC50): 0.944 µM |
| Cc1c(C(=O)Nc2ccccc2C(=O)NC2CC2)cnn1-c1cccc(C(F)(F)F)c1 |  | 0.41 | IC50 (HEPG2TOX_HILL_SLOPE 8.3, HEPG2TOX_R_SQUARED 0.547, PBLUC_HILL_SLOPE 12.1, PBLUC_R_SQUARED 0.521, read-out: LUCIFERASE INFECTION ASSAY - IC50): 0.342 µM |

| SMILES | IC50 [1] [µM] | IC90 [µM] | further results |
| --- | --- | --- | --- |
| O=C(NC1CCCc2ccccc21)c1cc(Cl)nc(Cl)c1 (stereo not given) | > 10 | > 10 |  |
| Cc1ccc2c(Cl)c(C(=O)Nc3nonc3-c3ccccc3)sc2c1 | 7.41 | 8.14 |  |
| CNc1nc2cnc(Nc3ccc(OC(C)C)cc3)cc2n1-c1cc(OC)c(OC)c(OC)c1 |  | > 10 | IC50 (PBLUC_HILL_SLOPE 1.37, PBLUC_R_SQUARED 0.322, read-out: LUCIFERASE INFECTION ASSAY - IC50): 5.86 µM |
| O=C(Nc1ccccc1)Nc1cncc(C#Cc2ccccc2)c1 |  | 10.2 | IC50 (PBLUC_HILL_SLOPE 6.32, PBLUC_R_SQUARED 0.624, read-out: LUCIFERASE INFECTION ASSAY - IC50): 7.23 µM |
| O=C(COC(=O)c1ccccc1NCCO)NC1c2ccccc2-c2ccccc21 |  | 4.07 | IC50 (FFLUC_HILL_SLOPE 129, FFLUC_R_SQUARED 0.809, HEPG2TOX_HILL_SLOPE 1.96, HEPG2TOX_R_SQUARED 0.833, PBLUC_HILL_SLOPE 15.2, PBLUC_R_SQUARED 0.28, read-out: LUCIFERASE INFECTION ASSAY - IC50): 3.52 µM |
| CNC(=O)c1cccc(-c2cc(C3(CNc4ccccc4F)CC3)ccn2)c1 | > 10 | > 10 |  |
| CC1CC(=O)N(CC(=O)Nc2ccc(C(F)(F)F)cc2)N=C1c1ccc(Cl)cc1 (stereo not given) |  | > 10 | IC50 (FFLUC_HILL_SLOPE 1.68, FFLUC_R_SQUARED 0.0802, HEPG2TOX_HILL_SLOPE 1.48, HEPG2TOX_R_SQUARED 0.946, read-out: LUCIFERASE INFECTION ASSAY - IC50): > 10 µM |
| CCNC(=O)COc1ccc(/C=C2\COc3ccccc3C2=O)cc1OC | > 10 | > 10 |  |
| CCCn1c(NC(=O)c2ccc3ccccc3n2)nc2ccccc21 |  | 3.56 | IC50 (PBLUC_HILL_SLOPE 15.7, PBLUC_R_SQUARED 0.527, read-out: LUCIFERASE INFECTION ASSAY - IC50): 3.1 µM |
| CCOC(=O)/C(=N\Nc1cc(C(F)(F)F)ccc1Cl)N1CCN(C(c2ccccc2)c2ccccc2)CC1 | 4.97 | > 10 |  |
| CC(C)N1CCN(c2ccc(-c3cn4c(-c5ccc(O)cc5)cnc4cn3)cc2)CC1 |  | > 7.98 | IC50 (PBLUC_HILL_SLOPE 1.81, PBLUC_R_SQUARED 0.0513, read-out: LUCIFERASE INFECTION ASSAY - IC50): > 7.98 µM |
| CCC(C)NC(=S)N/N=C/c1cc(Cl)cc(Cl)c1O (stereo not given) | > 10.3 | > 10.3 |  |
| Cc1nc(N2N=C3/C(=C/c4ccc(F)cc4)CCCC3C2c2ccc(F)cc2)sc1C(=O)O (stereo not given) |  | > 10 | IC50 (FFLUC_HILL_SLOPE 19.4, FFLUC_R_SQUARED 0.522, read-out: LUCIFERASE INFECTION ASSAY - IC50): > 10 µM |
| CCOC(=O)c1sc(SC)c2c1CCc1c[nH]nc1-2 |  | > 11.2 | IC50 (FFLUC_HILL_SLOPE 10.3, FFLUC_R_SQUARED 0.371, read-out: LUCIFERASE INFECTION ASSAY - IC50): > 11.2 µM |
| COc1cc(-c2[nH]nc3ccnc(-c4cccc(OC(F)(F)F)c4)c23)cc(OC)c1OC | > 10 | > 10 |  |
| O=S(=O)(Oc1ccc(Cl)cc1)c1cc(S(=O)(=O)c2ccccc2)cs1 | > 7.95 | > 7.95 |  |
| Cn1ccnc1C(=O)c1cc(SCC(=O)N2CCN(S(=O)(=O)c3ccc4ccccc4c3)CC2)nc2ccccc12 | > 10 | > 10 |  |
| CC(=O)c1cccc(-c2ccnc3c2CC(C(=O)NCCc2ccccc2)O3)c1 (stereo not given) |  | 5.14 | IC50 (HEPG2TOX_HILL_SLOPE 2.91, HEPG2TOX_R_SQUARED 0.95, PBLUC_HILL_SLOPE 2.2, PBLUC_R_SQUARED 0.478, read-out: LUCIFERASE INFECTION ASSAY - IC50): 1.89 µM |
| CC(C)Cn1c(-c2cc([N+](=O)[O-])ccc2Cl)nc2c1c(=O)[nH]c(=O)n2Cc1ccccc1 | > 10 | > 10 |  |
| O=C(Nc1nc2ccccc2[nH]1)c1ccc(Cl)c(S(=O)(=O)N2CCc3ccccc32)c1 |  | > 10 | IC50 (HEPG2TOX_HILL_SLOPE 9.78, HEPG2TOX_R_SQUARED 0.833, PBLUC_HILL_SLOPE 14, PBLUC_R_SQUARED 0.17, read-out: LUCIFERASE INFECTION ASSAY - IC50): 8.7 µM |
| CN(c1ccccc1)S(=O)(=O)c1cccc(C(=O)Nc2ccc(-c3cn4c(n3)CCC4)cc2)c1 | > 10 | > 10 |  |
| C(=C(c1nc2ccccc2s1)c1nc2ccccc2s1)c1cccnc1 |  | 9.07 | IC50 (HEPG2TOX_HILL_SLOPE 18.8, HEPG2TOX_R_SQUARED 0.503, PBLUC_HILL_SLOPE 12.3, 18.3, PBLUC_R_SQUARED 0.0559, 0.217, read-out: LUCIFERASE INFECTION ASSAY - IC50): 7.82 µM |
